Patent US10993920B2, “2-dodecyl-6-methoxycyclohexa-2,5-diene-1,4-dione as a cancer therapeutic” (MIDDLE TENNESSEE STATE UNIVERSITY, priority 2014, dated 2021)

Tests used:
THP-1 = assay: AlamarBlue cell viability of THP-1 cells; type: cell-based, human; conditions: with or without LPS stimulation
Experimental: (§1) THP-1 cells were seeded in a 96 well plate at a density of 5×10^5 cells/well, and incubated with 100 nM phorbol-12-myristate-13-acetate (PMA) (Sigma) for 72 h. After washing the wells with warm RPMI 1640 medium, cells were pretreated with various concentrations of DMDD (10, 32, 100 μM) for 30 minutes followed by 100 ng/ml Salmonella enterica serotype typhimurium lipopolysaccharide (LPS) (Sigma). Dexamethasone at 1 μM (Sigma) was used as a positive control. After 4 h of stimulation, supernatants were collected for the quantification of human TNF-α using the Duoset enzyme-linked immunosorbent assay (ELISA) development kit (R&D Systems). AlamarBlue cell viability reagent (Invitrogen) was used to access cell integrity, after the supernatant was removed, at a fluorescent excitation wavelength of 555 nm and emission wavelength of 590 nm.

MCF-7 [1] = assay: Multi parameter cytotoxicity measurement (HCS); type: cell-based, human; conditions: MCF-7, 48 h, dose-dependent
Experimental: (§2) MCF-7 and BT20 cells were seeded in a 96-well plate (Corning Costar) at a density of 4,000 cells/well and subsequently treated with different concentrations (10, 32, 100 μM) of DMDD for 48 h. Non-treated cells and cells treated with 100 μM Valinomycin were used as negative (control) and positive controls, respectively. Afterwards, the cells were stained with a mixture of fluorescent dyes including Hoechst 33342, cell permeability dye and mitochondrial membrane potential dye (Thermo Scientific). These dyes indicated changes in nuclear morphology (Channel 1), cell membrane permeability (Channel 2) and mitochondrial transmembrane potential (Channel 3), respectively. The cells were fixed and washed, and images for each fluoroprobe were acquired at different channels using suitable filters with a 20× objective and analyzed on the Arrayscan VTI HCS Reader (Thermo Scientific). The Cell Health Profiling BioApplication (Thermo Scientific) was used for image acquisition and analysis. For each well, at least 400 cells were automatically acquired and analyzed. The average fluorescent intensity was used to quantify changes in each channel.

BT20 [2] = assay: Multi parameter cytotoxicity measurement (HCS); type: cell-based, human
Experimental: as §2

HMEC = assay: Anti-proliferation assay (PrestoBlue), normal cell control; type: cell-based, human; conditions: for cell death: HMEC
Experimental: (§3) BT20 and MCF-7, human breast carcinoma cell lines (ATCC), were maintained in RPMI 1640 and Dulbecco's Modified Eagle Medium (DMEM) (Sigma), respectively. THP-1, a human monocytic leukemic cell line (ATCC), was maintained in RPMI 1640. HMEC, a normal human mammary epithelial cell line (ATCC), was maintained in McCoy's 5A (ATCC). All mediums were supplemented with 10% fetal bovine serum (FBS) (Gibco) and 1% penicillin-streptomycin and all cells were incubated in a humidified atmosphere with 5% CO2 at 37° C.
(§4) The proliferation inhibition potential of DMDD was determined in human breast cancer cell lines MCF-7 and BT20 by a fluorescence dye staining method with the normal cell line HMEC serving as a control. Cells were seeded at a density of 4˜5×10^3 cells/well in a 96-well tissue culture-treated plate (Corning Costar) and were incubated overnight. They were then treated with DMDD at final concentrations of 320 μM, 100 μM, 32 μM, 10 μM, 3.2 μM, 1 μM, and 0.32 μM. An experimental control with cells only was also included. After incubation for 48 h, the viability of cells was assessed using PrestoBlue dye (Invitrogen) according to manufacturer's protocol. The fluorescence intensity was measured on a SpectraMax M2e microplate reader (Molecular Devices, Inc.) at a fluorescent excitation wavelength of 555 nm and emission wavelength of 590 nm. The results were expressed as a percentage, relative to untreated control cells, and the half maximal inhibitory concentration (IC50) values were calculated using non-linear regression analysis.

[3] = tested on: LPS-induced TNF-α production in THP-1 cells; assay: Human TNF-α ELISA, LPS induced THP-1 cells; type: cell-based; conditions: THP-1, 12.5-50 μM pretreatment 30 min, 100 ng/ml LPS 4 h
Experimental: as §1, with “After washing the wells with warm RPMI 1640 medium, cells were pretreated with various concentrations of DMDD (10, 32, 100 μM) for 30 minutes followed by 100 ng/ml Salmonella enterica serotype typhimurium lipopolysaccharide (LPS) (Sigma).” left out

MCF-7 [4] = assay: Cell cycle analysis (PI staining); type: cell-based, human; conditions: MCF-7, 24 h; increased from 52%; not concentration-dependent
Experimental: (§5) MCF-7 and BT20 cells were first synchronized in the G0 phase by culturing cells for 24 h in serum-free medium, and then treated with 100 μM DMDD for 24 h. Cell cycle analysis was performed using propidium iodide (PI) (Millipore) staining as described (27). Cells were analyzed using a Guava flow cytometer with InCyte software (Millipore).

BT20 [5] = assay: Cell cycle analysis (PI staining); type: cell-based, human; conditions: BT20, 24 h; increased from 46%; not concentration-dependent
Experimental: as §5

[6] = tested on: caspase-3, -8, -9 expression in pancreas tissue; conditions: pancreas tissue of mice; cited from earlier work
[7] = single dose 5,000 mg/kg body weight; cited from earlier work
[8] = tested on: caspase 3/7 in MCF-7 cells; assay: Caspase-Glo 3/7 activation assay; type: cell-based, human; conditions: MCF-7, 4 h, concentration-dependent
Experimental: Caspase 3/7 and caspase 8 activities were analyzed using an in-situ luminescent maker in MCF-7 and BT20 cells respectively. […] Caspases activity was then determined using the Caspase-Glo 3/7 Assay (Promega) or the Caspase-Glo 8 Assay (Promega) according to the manufacturer's instructions. Briefly, cells were incubated with Caspase-Glo 3/7 substrate or Caspase-Glo 8 substrate and the luminescence of each sample was measured using a SpectraMax M2e Microplate Reader (Molecular Devices).

MCF-7 [9] = assay: Apoptosis assay (Annexin V/7-AAD); type: cell-based, human; conditions: MCF-7, 48 h, concentration-dependent
Experimental: (§6) MCF-7 and BT20 cells were seeded in a 96-well plate (Corning Costar) at a density of 8,000 cells/well and were subsequently treated with different concentrations (10, 32, 100 μM) of DMDD for 48 h. Afterwards, the cells were stained with Annexin V (Millipore) and 7-Aminoactinomycin (7-AAD) (Millipore), and analyzed on a Guava flow cytometer using InCyte software (Millipore).

BT20 [10] = assay: Apoptosis assay (Annexin V/7-AAD); type: cell-based, human; conditions: BT20, 48 h, concentration-dependent
Experimental: as §6

caspase 8 in MCF-7 cells = assay: Caspase-Glo 8 activation assay; type: cell-based, human; conditions: MCF-7, 4 h, depending on the concentration
Experimental: (§7) Caspase 3/7 and caspase 8 activities were analyzed using an in-situ luminescent maker in MCF-7 and BT20 cells respectively. Cells were seeded in a white 96-well plate (Greiner), treated with 100 μM DMDD for 4 h. Caspases activity was then determined using the Caspase-Glo 3/7 Assay (Promega) or the Caspase-Glo 8 Assay (Promega) according to the manufacturer's instructions. Briefly, cells were incubated with Caspase-Glo 3/7 substrate or Caspase-Glo 8 substrate and the luminescence of each sample was measured using a SpectraMax M2e Microplate Reader (Molecular Devices).

caspase 8 in BT20 cells = assay: Caspase-Glo 8 activation assay; type: cell-based, human; conditions: BT20, 4 h, depending on the concentration
Experimental: as §7

[11] = diabetic mouse model; cited from earlier work
[12] = tested on: caspase 3/7 in BT20 cells; assay: Caspase-Glo 3/7 activation assay; type: cell-based, human; conditions: BT20, 4 h, concentration-dependent
[13] = tested on: NF-κB nuclear translocation in BT20 cells; assay: Inhibition of TNF-α activated NF-κB translocation (HCS); type: cell-based, human; conditions: BT20, 10 ng/ml TNF-α; 10 μM more significant than 32 and 100 μM
MCF-7 [14] = assay: Oxidative stress determination (DHE, HCS); type: cell-based, human; conditions: 48 h
Experimental: (§8) MCF-7 and BT20 cells were seeded in a 96-well tissue culture-treated plate (Corning Costar) at a density of 8,000 cells/well and were subsequently treated with different concentrations (10, 32, 100 μM) of DMDD for 48 h. Non-treated cells served as negative control, and cells treated with 1 μM Retenone served as positive control. Afterwards, the cells were stained with Hoechst 33342 (Thermo Scientific) and dihydroethidium (DHE) (Sigma), fixed and evaluated on an ArrayScan VTI HCS Reader (Thermo Scientific). The generation of ROS in cells was quantified by the oxidation of non-fluorescent DHE to fluorescent ethidium, which subsequently binds to DNA. The Nuclear Translocation BioApplication software (Thermo Scientific) was used for image acquisition and analysis. For each well, at least 400 cells were automatically acquired and analyzed. Oxidative stress activation was assessed by the DHE staining in the nucleus and measured by the average intensity of fluorescent ethidium in the identified nuclear region (MEAN_CircAvgIntenCh2).

BT20 [15] = assay: Oxidative stress determination (DHE, HCS); type: cell-based, human; conditions: 48 h
Experimental: as §8

MCF-7 [16] = assay: Cytochrome c release assay; type: cell-based, human; conditions: MCF-7, 48 h
Experimental: (§9) MCF-7 and BT20 cells were seeded in a 96-well plate (Corning Costar) at a density of 8,000 cells/well and were subsequently treated with 100 μM of DMDD for 48 h. The percentage of cells releasing cytochrome c from mitochondria was determined using the FlowCellect Cytochrome c Kit (Millipore) according to the manufacturer's protocol. Briefly, cells were permeabilized, fixed, and stained with either anti-IgG1-FITC Isotype control or anti-Cytochrome c-FITC dye. Data was acquired and analyzed using a Guava flow cytometer and InCyte software (Millipore).

BT20 [17] = assay: Cytochrome c release assay; type: cell-based, human; conditions: BT20, 48 h
Experimental: as §9

[18] = tested on: NF-κB nuclear translocation in MCF-7 cells; assay: Inhibition of TNF-α activated NF-κB translocation (HCS); type: cell-based, human; conditions: MCF-7, 2 h, 10 ng/ml TNF-α; concentration-dependent
Experimental: MCF-7 cells were seeded in a 96 well plate (Corning Costar) at a density of 8,000 cells/well and then treated with 100 μM DMDD for 2 h, followed by the addition of 10 ng/ml tumor necrosis factor-alpha (TNF-α) (Sigma). Untreated cells and cells treated with 10 ng/ml TNF-α alone served as controls. Cells were fixed, permeabilized, and sequentially stained with Nuclear factor kappa B (NF-κB) primary antibody, Dylight 488-conjugated secondary antibody, and Hoechst 33342 dye. The Hoechst and DyLight fluorophores detect changes in nuclear morphology (blue fluorescence) and NF-κB distribution (green fluorescence), respectively. The samples were analyzed on an Arrayscan VTI HCS Reader (Thermo Scientific). The Nuclear Translocation BioApplication (Thermo Scientific) was used for image acquisition and analysis. For each well, at least 400 cells were automatically acquired and analyzed. The translocation index was calculated by measuring the average intensity difference of NF-κB between the identified cytoplasmic region and nuclear region (MEAN_CircRingAvgIntenDiffCh2).

MCF-7 [19] = assay: Anti-proliferation assay (PrestoBlue) and IC50 determination; type: cell-based, human
Experimental: as §3, §4

BT20 [20] = assay: as above; type: cell-based, human
Experimental: as §3, §4

CCCCCCCCCCCCC1=CC(=O)C=C(OC)C1=O [DMDD, 2-dodecyl-6-methoxycyclohexa-2,5-diene-1,4-dione]
viability of THP-1 cells (THP-1): did not affect the viability | mitochondrial membrane potential (MCF-7 [1]): loss of mitochondrial potential | plasma membrane permeability (MCF-7 [1]): increased plasma membrane permeability | nuclear morphology (BT20 [2]; BT20, 100 μM, 48 h): nuclear condensation | mitochondrial membrane potential (BT20 [2]; BT20, 48 h, dose-dependent): loss of mitochondrial potential | plasma membrane permeability (BT20 [2]; BT20, 48 h, dose-dependent): increased plasma membrane permeability | cell death (HMEC; 3.2 μM): not affected | cell death (HMEC; 10 μM): 12.7% | IC50 (HMEC; Homo sapiens, HMEC normal cells, 48 h treatment): 48.1 µM | TNF-α level in supernatants relative to LPS alone [3]: significant reduction | percentage of G1 phase cells (MCF-7 [4]): 71% | percentage of G1 phase cells (BT20 [5]): 65% | caspase-3, -8, -9 expression [6]: significantly reduced | acute toxicity [7]: did not cause any acute toxicity | caspase 3/7 activity vs untreated cells [8]: increased significantly | apoptosis induction (MCF-7 [9]): induced apoptosis | apoptosis induction (BT20 [10]): induced apoptosis | caspase 8 activity increase (caspase 8 in MCF-7 cells): 2-5 fold | caspase 8 activity increase (caspase 8 in BT20 cells): 2-5 fold | effective dosage [11]: 12.5 to 25 mg/kg | caspase 3/7 activity vs untreated cells [12]: increased significantly | inhibition of TNF-α-induced NF-κB nuclear translocation [13]: significant inhibition | ROS level versus untreated control (MCF-7 [14]; MCF-7, 10 μM): nearly two-fold | ROS level versus non-treated control (MCF-7 [14]; MCF-7, 33 μM): nearly three-fold | ROS level versus untreated control (MCF-7 [14]; MCF-7, 100 μM): nearly two-fold | ROS level versus untreated control (BT20 [15]; BT20, 10 μM): nearly two-fold | ROS level versus non-treated control (BT20 [15]; BT20, 33 μM): nearly three-fold | ROS level versus untreated control (BT20 [15]; BT20, 100 μM): nearly two-fold | cytochrome c release from mitochondria (MCF-7 [16]): released | cytochrome c release from mitochondria (BT20 [17]): released | inhibition of TNF-α-induced NF-κB nuclear translocation [18]: significant inhibition | IC50 (MCF-7 [19]; Homo sapiens, MCF7, MCF-7, 48 h treatment): 3.44 µM | cell death (MCF-7 [19]; MCF-7, 3.2 μM): 49.9% | cell death (MCF-7 [19]; MCF-7, 10 μM): 84.5% | cell death (BT20 [20]; BT20, 3.2 μM): 43.8% | cell death (BT20 [20]; BT20, 10 μM): 63.5% | IC50 (BT20 [20]; Homo sapiens, BT-20, BT20, 48 h treatment): 5.03 µM
